According to patent US20250282720A1, “ALKYLSULFENYL THIOCARBONATES: PRECURSORS TO HYDROPERSULFIDES POTENTLY ATTENUATE OXIDATIVE STRESS” (The Johns Hopkins University, priority 2021, published 2025):

Experiments:
[1] = system: ferritin heavy chain 1 (FTH1); test: FTH1 protein expression, immunoblot; assay type: cell-based, human; conditions: 25 and 50 μM for 4 h, erastin 24 h
Procedure: (§1) FIG. 14A, FIG. 14B, FIG. 14C, and FIG. 14D show: FIG. 14A and FIG. 14B pretreatment of AST (25 and 50 μM) for 4 h followed by 24 h treatment with erastin ([…]) immunoblots for indicated proteins of lysates derived from FA fibroblasts. FIG. 14C and FIG. 14D, relative abundance of TFR1 and FTH1 proteins normalized to β-actin loading control. Results are the means+SEM of n=3 for all concentrations. *P<0.05, **P<0.005, comparisons with the erastin group. Group comparisons are determined by a one-way analysis of variance (ANOVA) with Dunnet's correction post-hoc test using GraphPad Prism 8. Samples were run on the same gel for SDS-Page gel electrophoresis in nonconsecutive lanes;
(§2) To test this hypothesis, we studied the effect of RSSH on TFR1 and FTH1 expression levels. We anticipated that the impacts of RSSH would result in downregulation of TFR1 and upregulation of FTH1. […] Feng et al., 2020; Park and Chung, 2019.

[2] = Kinetics of RSSH release (precursor hydrolysis) in the presence of MMTS, monitored by HPLC; assay type: physicochemical
Procedure: After confirming RSSH generation from 1a, the kinetics of RSSH release from alkylsulfenyl thiocarbonates in the presence of MMTS was analyzed by high-performance liquid chromatography (HPLC). Due to the lack of a chromophore in MMTS adduct 7, the decay of the RSSH precursor and formation of the corresponding phenol byproduct was monitored. First-order rate constants were obtained by plotting the precursor decay and phenol byproduct formation as a function of time. […] The observation of similar rate constants for both 1a decay and phenol (4a) formation indicates a rapid reaction of relased RSSH with MMTS, and that these observed rate constants indicate the RSSH release rate. Importantly, 92% of the byproduct phenol 4a is observed. In addition, the effect of pH on the kinetics of RSSH release also was examined.
The RSSH release kinetics for precursors containing a variety of para-substituted phenols were then compared. It was hoped to decrease the rate of RSSH release through the introduction of electron-donating groups. Indeed, a small decrease in the RSSH release rate from 1b, equipped with a 4-Me substituent (137±4 min) (Table 1) was observed.
MMTS (100 μL, 50 mM) was added in pH 7.4 phosphate buffer saline (4.85 mL) containing the DTPA (100 μM) as metal chelator. This solution was preincubated for 10 min at 37° C. and then precursor 1a-f or 8 (50 μL, 10 mM) were independently added into the mixture (total volume=5 mL). The resulting solution was incubated at 37° C. At different time points, an aliquot of 300 μL was taken and quenched with 300 μL 0.1% formic acid solution. These samples were stored at 0° C. until HPLC analysis was performed. The sample (20 μL) was injected into a high-performance liquid chromatography (HPLC) equipped with Phenomenex C-18 reverse phase column (250 mm×4.6 mm, 5 μm). HPLC Method: mobile phase A (H2O) and mobile phase B (ACN), flow rate: 1 mL/min, run time: 21 min, the gradient elution method: 10% to 70% B from 0 to 10 min, 70% to 90% B from 10 to 21 min. The elution was monitored by a UV detector at 240 and 275 nm. First-order rate constants were obtained by plotting the precursor decay and phenol by-product formation as a function of time.

FA fibroblasts (GM04078) = test: Cytoprotection against H2O2 stress in FA fibroblasts, CCK8; assay type: cell-based, human; conditions: 4 h pretreatment, H2O2 75 μM for 4 h
Procedure: FIG. 10A, pretreatment of AST with varying concentrations in FA fibroblasts (GM04078, Coriell Institute) for 4 h followed by 4 h treatment with H2O2. Viability was measured using CCK8 assay. FIG. 10B, pretreatment of AST with varying concentrations in FA fibroblasts for 4 h followed by treatment with erastin for 24 h. […] Group comparisons are determined by a one-way analysis of variance (ANOVA) with Dunnet's correction post-hoc test using GraphPad Prism 8;
Initially, we measured the cytotoxicity of AST in FA skin fibroblasts (GM04078), obtained from the Coriell Institute, to ensure that the RSSH donor itself is not cytotoxic. […] We then measured the ability of AST to confer cytoprotection in FA fibroblasts against hydrogen peroxide (H2O2) stress.

[3] = system: transferrin receptor 1 (TFR1); test: TFR1 protein expression, immunoblot; assay type: cell-based, human; conditions: 25 and 50 μM for 4 h, erastin 24 h
Procedure: as §1, §2

H9c2 cardiac myoblasts = test: H9c2 cell protection from H2O2-mediated oxidative stress, CCK-8; assay type: cell-based, rat; conditions: then H2O2 200 μM
Procedure: The cytoprotective effects of 1a was then measured against oxidative stress.
H9c2 embryonic rat heart myoblasts were obtained from the American Type Culture Collection. Cells were grown in Dulbecco's minimal essential medium (DMEM), supplemented with fetal bovine serum (FBS) 10%, penicillin 100 U/mL and streptomycin 100 μg/mL. They were propagated in T75-flasks, split before reaching 70-80% confluence (usually every day or every second day), and used within 11 passages. Cells were passaged to tissue culture treated 96-well microtiter plates at the specified density in 180 μL volumes and incubated for 24 h.
Cells were seeded at a density of 5×10^3 cells/well. After 24 h, precursor 1a or by-product 4a was added at 20 μL volumes using DMSO:H2O (<0.01% DMSO as the vehicle). Cells were incubated for 2 h before media was removed and the cells gently washed with PBS (pH 7.4). Then, 180 μL of fresh media and 20 μL H2O2 diluted into H2O were added and cells were incubated for an additional 2 h. At the completion of H2O2 exposure, each well is carefully washed 3 times with PBS (pH 7.4) before adding 100 μL of media, without-FBS, containing 10% v/v CCK-8 (Dojindo) and incubated for 3 h prior to obtaining absorbance values at 450 nm. The relative % viability was calculated as 100 times the ratio of the Abs450 (pre-treated, H2O2-exposed) over Abs450 (vehicle-treated, non H2O2-exposed).

aconitase = test: Aconitase activity in enriched-mitochondrial pellets of FA fibroblasts; assay type: cell-based, human; design: aconitase activity after erastin: dose or concentration left out as unconfirmed
Procedure: Aconitase activity was measured as a result of formation of NADH and normalized to citrate synthase activity. FIG. 12B, pretreatment of AST with varying concentrations in FA fibroblasts for 4 h followed by 24 h treatment with erastin ([…]). Assays were conducted on enriched-mitochondrial pellets. Results are the means±SEM of n≥3 for all concentrations. *P<0.05, **P<0.005, ***P<0.0005, ****P<0.0001 for comparisons with the […]. Group comparisons are determined by a one-way analysis of variance (ANOVA) with Dunnet's correction post-hoc test using GraphPad Prism 8;
FXN deficiency results in diminished activity of various mitochondrial proteins that contain Fe—S cluster cofactors. For example, aconitase activity is affected in FA fibroblasts. Rötig et al., 1997. Aconitase catalyzes the stereospecific isomerization of citrate to isocitrate in the tricarboxylic acid cycle and its activity is highly dependent on an intact [4Fe-4S]^2+ cluster. We examined the impact of RSSH in FA fibroblasts on aconitase activity, the increase of which is reflective of preserved or augmented Fe—S cluster biosynthesis. […] To corroborate further that AST can effectively preserve or enhance Fe—S cluster assembly under challenging biological conditions, we conducted analogous experiments replacing H2O2 with erastin.

[4] = 10 equiv MMTS, PBS pH 7.4, 100 mM

- t1/2 of hydrolysis ([2]; pH 6.0): 26.65 ± 0.8 h
- t1/2 of hydrolysis ([2]; pH 8.0): 0.617 ± 0.05 h
- TFR1 protein level [3]: three-fold decrease
Compound: COC(=O)C(NC(C)=O)C(C)(C)SSC(=O)Oc1ccccc1 (centres unmarked) [Precursor 1a, Methyl 2-acetamido-3-methyl-3-((phenoxycarbonyl)disulfaneyl)butanoate]
- FTH1 protein level [1]: two-fold increase
- first-order rate constant k, disappearance of precursor [2, 4]: 0.00539 min⁻¹
- first-order rate constant k, formation of phenol [2, 4]: 0.00533 min⁻¹
- cytoprotection against H2O2 stress (FA fibroblasts (GM04078)): attenuated
- cytoprotection against H2O2-induced toxicity (H9c2 cardiac myoblasts; pre-treatment 4 h): dose-dependent decrease of H2O2-induced toxicity
- cytoprotection against H2O2-induced toxicity (H9c2 cardiac myoblasts; pre-treatment with 5 μM for 8 h): shows protection
- aconitase activity after H2O2 (aconitase; 4 h pretreatment at 10, 25, 50 μM, 75 mM H2O2): rescues aconitase activity to levels found in control
- aconitase activity after erastin (aconitase; pretreatment): attenuated this adverse effect
